Reference: PubChem BioAssay (NCI)
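Results reflect a 48-hour exposure of cells in 96-well plates to compound at five concentrations. Abbreviation: GI50, concentration required for 50% inhibition of growth. TGI marks complete inhibition of growth.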

Key:
Assay in all cases: NCI anticancer screen, dose series, 48 h
[1] = test system: NCI-H23 lung
[2] = test system: NCI-H460 lung
[3] = test system: NCI-H522 lung
[4] = test system: NCI/ADR-RES ovarian
[5] = test system: OVCAR-3 ovarian
[6] = test system: OVCAR-4 ovarian
[7] = test system: OVCAR-5 ovarian
[8] = test system: OVCAR-8 ovarian
[9] = test system: PC-3 prostate
[10] = test system: RPMI-8226 leukemia
[11] = test system: RXF 393 renal
[12] = test system: SF-268 CNS
[13] = test system: SF-295 CNS
[14] = test system: SF-539 CNS
[15] = test system: SK-MEL-2 melanoma
[16] = test system: SK-MEL-28 melanoma
[17] = test system: SK-MEL-5 melanoma
[18] = test system: SK-OV-3 ovarian
[19] = test system: SN12C renal
[20] = test system: SNB-19 CNS
[21] = test system: SR leukemia
[22] = test system: SW-620 colon
[23] = test system: T-47D breast
[24] = test system: TK-10 renal
[25] = test system: U251 CNS
[26] = test system: UACC-257 melanoma
[27] = test system: UACC-62 melanoma
[28] = test system: UO-31 renal

Question: `O=S(=O)(Nc1ccc(I)c(Cl)c1)c1ccc(-c2cnc(C3CC3)o2)cc1` was tested. Which GI50 [1] did it give?
Answer: 2.68 µM

Question: And the TGI [1]?
Answer: 14 µM

Question: And the GI50 [2]?
Answer: 1.5 µM

Question: And the TGI [2]?
Answer: 10.2 µM

Question: What about the GI50 [3] of the same compound?
Answer: 0.557 µM

Question: What about the TGI [3] of the same compound?
Answer: 7.49 µM

Question: And the GI50 [4]?
Answer: 0.761 µM

Question: What about the TGI [4] of the same compound?
Answer: 6.82 µM

Question: What about the GI50 [5] of the same compound?
Answer: 0.404 µM

Question: And the TGI [5]?
Answer: 2.89 µM

Question: And the GI50 [6]?
Answer: 3.3 µM

Question: And the TGI [6]?
Answer: 14.9 µM

Question: And the GI50 [7]?
Answer: 3.06 µM

Question: What about the TGI [7] of the same compound?
Answer: 13.3 µM

Question: And the GI50 [8]?
Answer: 3.08 µM

Question: And the TGI [8]?
Answer: 15.3 µM

Question: What about the GI50 [9] of the same compound?
Answer: 1.12 µM

Question: What about the TGI [9] of the same compound?
Answer: 11.7 µM

Question: And the GI50 [10]?
Answer: 2.61 µM

Question: And the TGI [10]?
Answer: 23.1 µM

Question: And the GI50 [11]?
Answer: 1.49 µM

Question: And the TGI [11]?
Answer: 7.55 µM

Question: And the GI50 [12]?
Answer: 3.15 µM

Question: What about the TGI [12] of the same compound?
Answer: 18.9 µM

Question: What about the GI50 [13] of the same compound?
Answer: 0.362 µM

Question: And the TGI [13]?
Answer: 1.41 µM

Question: What about the GI50 [14] of the same compound?
Answer: 1.26 µM

Question: What about the TGI [14] of the same compound?
Answer: 5.23 µM

Question: What about the GI50 [15] of the same compound?
Answer: 1.31 µM

Question: And the TGI [15]?
Answer: 16.7 µM

Question: And the GI50 [16]?
Answer: 3.13 µM

Question: And the TGI [16]?
Answer: 19.9 µM

Question: And the GI50 [17]?
Answer: 2.7 µM

Question: And the TGI [17]?
Answer: 13.1 µM

Question: And the GI50 [18]?
Answer: 3.35 µM

Question: And the TGI [18]?
Answer: 17.6 µM

Question: And the GI50 [19]?
Answer: 3.17 µM

Question: What about the TGI [19] of the same compound?
Answer: 15.2 µM

Question: What about the GI50 [20] of the same compound?
Answer: 1.69 µM

Question: What about the TGI [20] of the same compound?
Answer: 17 µM

Question: What about the GI50 [21] of the same compound?
Answer: 0.317 µM

Question: And the TGI [21]?
Answer: 17.7 µM

Question: What about the GI50 [22] of the same compound?
Answer: 0.65 µM

Question: And the TGI [22]?
Answer: 13.4 µM

Question: What about the GI50 [23] of the same compound?
Answer: 1.52 µM

Question: And the TGI [23]?
Answer: 16.2 µM

Question: And the GI50 [24]?
Answer: 3.15 µM

Question: What about the TGI [24] of the same compound?
Answer: 17 µM

Question: What about the GI50 [25] of the same compound?
Answer: 1.53 µM

Question: And the TGI [25]?
Answer: 12.6 µM

Question: What about the GI50 [26] of the same compound?
Answer: 3.74 µM

Question: And the TGI [26]?
Answer: 21.7 µM

Question: What about the GI50 [27] of the same compound?
Answer: 0.475 µM

Question: What about the TGI [27] of the same compound?
Answer: 12.8 µM

Question: What about the GI50 [28] of the same compound?
Answer: 2.71 µM

Question: And the TGI [28]?
Answer: 15.5 µM
